Measurements reported in patent publication US20130096028A1, “CELL CAPABLE OF EXPRESSING TSLP CONSTANTLY AND AT HIGH LEVEL, AND METHOD FOR SCREENING FOR TSLP MODULATOR UTILIZING THE CELL” (TOHOKU UNIVERSITY, priority 2010, published 2013).

Experiments:
human TSLP mRNA = conditions: human airway epithelial cell lines; cited from earlier work
[1] = test system: TSLP production of KCMH-1 cell; experiment: TSLP production of KCMH-1 cells, TSLP in culture supernatant quantified by ELISA; format: cell-based, mouse; conditions: BAY11-7082 10 μM, 24 hours, ELISA (FIG. 5)
Experimental: The KCMH-1 cells were suspended at a concentration of 1×10^5 cells/ml in an MEMU medium containing 10% FBS. 0.5 ml of the cell suspension was inoculated to each well of a 24-well cluster dish. 24 hours later, the medium was removed, and the cells were washed with phosphate-buffered saline (PBS). Then, 0.5 ml of an MEMU medium containing 10% FBS and each concentration of dexamethasone (0.1 or 1 μM) or FK506 ([…]) was added to the cells. 24 hours later, the culture solution was collected, and TSLP in the supernatant was quantified by ELISA (FIG. 2).
The KCMH-1 cells were suspended at a concentration of 1×10^5 cells/ml in an MEMU medium containing 10% FBS. 0.5 ml of the cell suspension was inoculated to each well of a 24-well cluster dish. […] 24 hours later, the culture solution was collected, and TSLP in the supernatant was quantified by ELISA (FIG. 3).
The KCMH-1 cells were suspended at a concentration of 1×10^5 cells/ml in an MEMU medium containing 10% FBS. […] 24 hours later, the culture solution was collected, and TSLP in the supernatant was quantified by ELISA (FIG. 4).
The KCMH-1 cells were suspended at a concentration of 1×10^5 cells/ml in an MEMU medium containing 10% FBS. […] 24 hours later, the culture solution was collected, and TSLP in the supernatant was quantified by ELISA (FIG. 5).

**Q.** For `CC1=C(/C=C/C(C)=C\C=C\C(C)=C\C(=O)O)C(C)(C)CCC1` [9-cis-retinoic acid], which “expression of human TSLP mRNA by IL-1β” value (human TSLP mRNA) is on record?
**A.** inhibits

**Q.** For `Cc1ccc(S(=O)(=O)/C=C/C#N)cc1` [BAY11-7082], which “TSLP production in the KCMH-1 cells” value [1] is on record?
**A.** partially inhibited
